In ChEMBL document CHEMBL1201862, “PubChem BioAssay data set” (2004):
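96-well plates; 48 h exposure; 5 concentrations. Endpoints by linear interpolation between flanking doses. Not reached: highest tested concentration assigned. GI50 = concentration required for 50% inhibition of growth.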 Activity calls are given as the source filed them. Rule as the data show it: active = GI50 up to about 1.1 µM and inactive = higher.

How the values were obtained:
Assay in all cases: DTP human tumour cell line panel, 48 h
[1] = tested on: RXF 393
[2] = tested on: HT-29
[3] = tested on: A549
[4] = tested on: CCRF-CEM
[5] = tested on: KM12
[6] = tested on: K562
[7] = tested on: OVCAR-5
[8] = tested on: LOX IMVI
[9] = tested on: NCI-H23
[10] = tested on: SK-OV-3
[11] = tested on: SK-MEL-28
[12] = tested on: NCI-H460
[13] = tested on: SNB-75
[14] = tested on: Malme-3M
[15] = tested on: SF-295
[16] = tested on: OVCAR-3
[17] = tested on: HL-60

Measured: GI50

Nc1ccc(C2=Nc3ccccc3SC(c3ccccc3O)C2)cc1 (stereo not drawn)
inactive: [1] 24.9 µM | [2] 42.8 µM | [3] 51.2 µM | [4] 12.4 µM | [5] 25.5 µM | [6] 15.3 µM | [7] > 100 µM | [8] 30.7 µM | [9] 30.5 µM | [10] > 100 µM | [11] 65.8 µM | [12] 30.6 µM | [13] 24.7 µM | [14] > 100 µM | [15] 38 µM | [16] 23.3 µM | [17] 23.9 µM

C[C@H]1[C@H](C)CC[C@]2(C(=O)O)CCC3(COC(=O)/C=C/c4ccc(O)cc4)C(=CCC4[C@@]5(C)CC[C@H](O)C(C)(C)C5CC[C@]43C)[C@H]12 (stereo partly drawn)
inactive: [1] 10.9 µM | [2] 6.12 µM | [3] 2.61 µM | [4] 3.84 µM | [5] 3.47 µM | [6] 2.86 µM | [7] 14.8 µM | [8] 5.24 µM | [10] 1.63 µM | [11] 10.8 µM | [12] 3.09 µM | [13] 10.2 µM | [14] 19.3 µM | [15] 3.72 µM | [16] 4.8 µM | [17] 7.96 µM

C[N+]1(C)C/C(=C\c2ccc(O)cc2)C(=O)/C(=C/c2ccc(O)cc2)C1
inactive: [1] > 100 µM | [2] > 100 µM | [3] 37.5 µM | [4] 23.7 µM | [5] 45.1 µM | [7] > 100 µM | [8] 56.8 µM | [10] > 100 µM | [11] > 100 µM | [12] 29 µM | [13] > 100 µM | [14] > 100 µM | [15] 63.2 µM | [16] > 100 µM | [17] 19.5 µM

Cc1ccc(NC(=O)CCc2nnc(N)o2)cc1
inactive: [1] > 100 µM | [2] > 100 µM | [3] > 100 µM | [4] > 100 µM | [5] > 100 µM | [6] > 75.7 µM | [7] > 100 µM | [8] > 100 µM | [9] > 100 µM | [10] > 100 µM | [11] > 100 µM | [12] > 100 µM | [13] > 100 µM | [14] > 100 µM | [15] > 100 µM | [16] > 100 µM | [17] > 67.3 µM

NC(CCC(=O)NC(CSC(=O)N(O)c1ccccc1)C(=O)NCC(=O)O)C(=O)O (stereo not drawn)
inactive: [1] > 1000 µM | [2] > 1000 µM | [3] > 1000 µM | [4] > 1000 µM | [5] > 1000 µM | [6] > 1000 µM | [7] > 1000 µM | [8] > 1000 µM | [9] > 1000 µM | [10] > 1000 µM | [11] > 1000 µM | [12] > 1000 µM | [13] > 1000 µM | [14] > 1000 µM | [15] > 1000 µM | [16] > 1000 µM | [17] > 1000 µM

CCOc1ccc2nc(NC(=O)C(=O)C(C#N)CC(C)(C)C=O)sc2c1 (stereo not drawn)
inactive: [1] > 100 µM | [2] > 100 µM | [3] > 100 µM | [4] 26.9 µM | [5] > 100 µM | [6] 52.7 µM | [7] > 100 µM | [8] 44.2 µM | [9] > 100 µM | [10] > 100 µM | [11] > 100 µM | [12] > 100 µM | [13] > 100 µM | [14] > 100 µM | [15] > 100 µM | [16] > 100 µM | [17] > 100 µM

CN(C)CC/C(=N\Nc1c(F)c(F)c(F)c(F)c1F)c1ccccc1
inactive: [1] 22 µM | [2] 35.8 µM | [3] 31.6 µM | [4] 21.2 µM | [5] 48.5 µM | [6] 20.4 µM | [7] 49.9 µM | [8] 32.7 µM | [9] 77.1 µM | [10] 3.32 µM | [11] > 100 µM | [12] 28 µM | [13] 3.35 µM | [14] 36.9 µM | [15] 38.5 µM | [16] > 10 µM | [17] 9.68 µM

CC(=O)OC1C[C@H]2C(OC(=O)c3ccccc3)C3C4(OC(C)=O)COC4C[C@H](OC(C)=O)[C@@]3(C)C(OC(C)=O)[C@H](OC(C)=O)C(=C1C)C2(C)C (stereo partly drawn)
inactive: [1] 16.2 µM | [2] 49.3 µM | [3] 31.2 µM | [4] 36.7 µM | [5] 59.4 µM | [6] 23.8 µM | [7] > 100 µM | [8] 40.9 µM | [9] 52.8 µM | [10] 34.1 µM | [11] > 100 µM | [12] 35.5 µM | [13] 14.3 µM | [14] 71.8 µM | [15] 33.5 µM | [16] 64.7 µM | [17] 16.7 µM

Cc1cc(C)nc(NS(=O)(=O)c2ccc(Nc3c4ccccc4nc4c(C(=O)N5CCN(CCO)CC5)cccc34)cc2)n1
inactive: [1] > 100 µM | [2] > 100 µM | [3] > 100 µM | [4] > 100 µM | [5] > 100 µM | [6] > 100 µM | [7] > 100 µM | [8] > 100 µM | [9] > 100 µM | [10] > 100 µM | [11] > 100 µM | [12] > 100 µM | [13] 95.7 µM | [14] > 100 µM | [15] > 100 µM | [16] > 100 µM | [17] > 100 µM

CCOC(=O)C1=C(O)C(=O)c2cc(OC)ccc2C1=O
inactive: [1] > 100 µM | [2] > 100 µM | [3] 96.2 µM | [4] > 100 µM | [5] > 100 µM | [6] > 100 µM | [7] > 100 µM | [8] 55.2 µM | [9] 31.8 µM | [10] > 100 µM | [11] > 100 µM | [12] > 100 µM | [13] 20.9 µM | [14] > 100 µM | [15] 84.9 µM | [16] > 100 µM | [17] > 100 µM

CC(=O)Nc1ccc(C(=O)NN2C(=O)C(Cl)C2c2ccc([N+](=O)[O-])cc2)cc1 (stereo not drawn)
inactive: [1] > 100 µM | [2] > 100 µM | [3] > 100 µM | [4] > 100 µM | [6] > 100 µM | [7] > 100 µM | [8] > 100 µM | [9] > 100 µM | [10] > 100 µM | [11] > 100 µM | [12] > 100 µM | [13] > 100 µM | [14] > 100 µM | [15] > 100 µM | [16] > 100 µM | [17] > 100 µM
